Data on 20 compounds can be found in patent US11304929B2, “Tosylacetate based compounds and derivatives thereof as PHGDH inhibitors” (priority 2017, dated 2022).

In one test the target is PHGDH (Homo sapiens (Human), UniProt O43175). In words: 3-Phosphoglycerate Dehydrogenase (PHGDH) Fluorescence Intensity Assay, run at two NAD/3-PG ratios: PHGDH_HIGH_NAD/3-PG (250 μM NAD/500 μM 3-PG) and PHGDH_500_NAD/3-PG (500 μM NAD/500 μM 3-PG). Type of test: biochemical. The note with it: 250 μM NAD/500 μM 3-PG; read-out: IC50 (PHGDH_HIGH_NAD/3-PG).
PHGDH, sequence (O43175 2-533 limits assumed): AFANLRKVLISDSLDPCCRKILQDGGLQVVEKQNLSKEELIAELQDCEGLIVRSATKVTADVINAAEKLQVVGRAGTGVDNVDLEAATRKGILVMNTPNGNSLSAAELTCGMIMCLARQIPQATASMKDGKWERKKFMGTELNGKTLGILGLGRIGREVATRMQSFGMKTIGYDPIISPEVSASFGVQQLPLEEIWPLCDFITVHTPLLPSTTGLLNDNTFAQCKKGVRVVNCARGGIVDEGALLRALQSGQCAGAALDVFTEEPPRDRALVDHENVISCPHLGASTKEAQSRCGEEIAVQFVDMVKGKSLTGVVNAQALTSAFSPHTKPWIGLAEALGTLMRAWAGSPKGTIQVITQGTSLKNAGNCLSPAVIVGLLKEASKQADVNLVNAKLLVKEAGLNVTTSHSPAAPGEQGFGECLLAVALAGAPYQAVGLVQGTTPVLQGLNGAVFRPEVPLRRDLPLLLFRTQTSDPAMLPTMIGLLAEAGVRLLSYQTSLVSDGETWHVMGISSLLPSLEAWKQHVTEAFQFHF
Take `Cc1cc(Cl)c2cc(C(=O)N[C@H](C)c3ccc(S(=O)(=O)CC(=O)O[C@H]4CCOC4)cc3)n(C)c2c1` [Example 09-018, (3S)-oxolan-3-yl 2-{4-[(1R)-1-[(4-chloro-1,6-dimethyl-1H-indol-2-yl)formamido]ethyl]benzenesulfonyl}acetate]: the IC50 was 418 nM. Take `Cc1cc(Cl)c2cc(C(=O)N[C@H](C)c3ccc(S(=O)(=O)CC(=O)O[C@@H]4CCOC4)cc3)n(C)c2c1` [Example 09-019, (3R)-oxolan-3-yl 2-{4-[(1R)-1-[(4-chloro-1,6-dimethyl-1H-indol-2-yl)formamido]ethyl]benzenesulfonyl}acetate]: the IC50 was 250 nM. In the case of `COC(C)(C)COC(=O)CS(=O)(=O)c1ccc([C@@H](C)NC(=O)c2cc3c(Cl)cc(C)cc3n2C)cc1` [Example 09-021, 2-methoxy-2-methylpropyl 2-{4-[(1R)-1-[(4-chloro-1,6-dimethyl-1H-indol-2-yl)formamido]ethyl]benzenesulfonyl}acetate], the IC50 turned out to be 574 nM. With `CC(=O)OCC(COC(C)=O)COC(=O)CS(=O)(=O)c1ccc([C@@H](C)NC(=O)c2cc3c(Cl)cc(C)cc3n2C)cc1` [Example 09-022, 3-(acetyloxy)-2-[(acetyloxy)methyl]propyl 2-{4-[(1R)-1-[(4-chloro-1,6-dimethyl-1H-indol-2-yl)formamido]ethyl]benzenesulfonyl}acetate], the IC50 is 431 nM.

For the compound `Cc1cc(Cl)c2cc(C(=O)N[C@H](C)c3ccc(S(=O)(=O)CC(=O)OCCOC(=O)C(C)(C)C)cc3)n(C)c2c1` [Example 09-023, 2-[(2-{4-[(1R)-1-[(4-chloro-1,6-dimethyl-1H-indol-2-yl)formamido]ethyl]benzenesulfonyl}acetyl)oxy]ethyl 2,2-dimethylpropanoate], the IC50 came out at 1800 nM.

For the compound `CC(=O)OCC(CO)COC(=O)CS(=O)(=O)c1ccc([C@@H](C)NC(=O)c2cc3c(Cl)cc(C)cc3n2C)cc1` (stereo partly drawn) [Example 09-024, 2-[(acetyloxy)methyl]-3-hydroxypropyl 2-{4-[(1R)-1-[(4-chloro-1,6-dimethyl-1H-indol-2-yl)formamido]ethyl]benzenesulfonyl}acetate], the IC50 amounted to 247 nM. Consider `Cc1cc(Cl)c2cc(C(=O)N[C@H](C)c3ccc(S(=O)(=O)CC(=O)OC4COC4)cc3)n(C)c2c1` [Example 09-025, oxetan-3-yl 2-{4-[(1R)-1-[(4-chloro-1,6-dimethyl-1H-indol-2-yl)formamido]ethyl]benzenesulfonyl}acetate], for which the IC50 came out at 72 nM. Still for that read-out and setting: as for `Cc1cc(Cl)c2cc(C(=O)N[C@H](C)c3ccc(S(=O)(=O)CC(=O)OCC(CO)COC(=O)C(C)(C)C)cc3)n(C)c2c1` (stereo partly drawn) [Example 09-026, 2-{[(2-{4-[(1R)-1-[(4-chloro-1,6-dimethyl-1H-indol-2-yl)formamido]ethyl]benzenesulfonyl}acetyl)oxy]methyl}-3-hydroxypropyl 2,2-dimethylpropanoate], the figure is 1410 nM; as for `Cc1cc(Cl)c2cc(C(=O)N[C@H](C)c3ccc(S(=O)(=O)CC(=O)OCC(CO)CO)cc3)n(C)c2c1` [Example 09-027, 3-hydroxy-2-(hydroxymethyl)propyl 2-{4-[(1R)-1-[(4-chloro-1,6-dimethyl-1H-indol-2-yl)formamido]ethyl]benzenesulfonyl}acetate], 160 nM; as for `Cc1cc(Cl)c2cc(C(=O)N[C@H](CO)c3ccc(S(=O)(=O)CC(=O)OC4CCOCC4)cc3)n(C)c2c1` [Example 09-028, oxan-4-yl 2-{4-[(1S)-1-[(4-chloro-1,6-dimethyl-1H-indol-2-yl)formamido]-2-hydroxyethyl]benzenesulfonyl}acetate], 230 nM. On the same count and under the same terms, as for `Cc1cc(Cl)c2cc(C(=O)N[C@H](CO)c3ccc(S(=O)(=O)CC(=O)O[C@H]4CCOC4)cc3)n(C)c2c1` [Example 09-030, (3S)-oxolan-3-yl 2-{4-[(1S)-1-[(4-chloro-1,6-dimethyl-1H-indol-2-yl)formamido]-2-hydroxyethyl]benzenesulfonyl}acetate], the figure is 85 nM.

Turning to `Cc1cc(Cl)c2cc(C(=O)N[C@H](CO)c3ccc(S(=O)(=O)CC(=O)OCC4(C)COC4)cc3)n(C)c2c1` [Example 09-031, (3-methyloxetan-3-yl)methyl 2-{4-[(1S)-1-[(4-chloro-1,6-dimethyl-1H-indol-2-yl)formamido]-2-hydroxyethyl]benzenesulfonyl}acetate], the IC50 was determined as 61 nM. Same read-out and setting: the same measure for `Cc1cc(Cl)c2cc(C(=O)N[C@H](CO)c3ccc(S(=O)(=O)CC(=O)OCCCO)cc3)n(C)c2c1` [Example 09-033, 3-hydroxypropyl 2-{4-[(1S)-1-[(4-chloro-1,6-dimethyl-1H-indol-2-yl)formamido]-2-hydroxyethyl]benzenesulfonyl}acetate]: 98 nM; for `Cc1cc(Cl)c2cc(C(=O)N[C@H](CO)c3ccc(S(=O)(=O)CC(=O)OCCO)cc3)n(C)c2c1` [Example 09-034, 2-hydroxyethyl 2-{4-[(1S)-1-[(4-chloro-1,6-dimethyl-1H-indol-2-yl)formamido]-2-hydroxyethyl]benzenesulfonyl}acetate]: 52 nM. Same read-out and setting: as for `Cc1cc(Cl)c2cc(C(=O)N[C@H](CO)c3ccc(S(=O)(=O)CC(=O)OCC4COC4)cc3)n(C)c2c1` [Example 09-035, oxetan-3-ylmethyl 2-{4-[(1S)-1-[(4-chloro-1,6-dimethyl-1H-indol-2-yl)formamido]-2-hydroxyethyl]benzenesulfonyl}acetate], the figure is 54 nM.

The test is the same for the next values; noted with them: 500 μM NAD/500 μM 3-PG; read-out: IC50 (PHGDH_500_NAD/3-PG).
With `Cc1cc2c(cc(C(=O)N[C@H](CO)c3ccc(S(=O)(=O)CC(=O)OCCO)cc3)n2C)c(Cl)c1Cl` [Example 09-036, 2-hydroxyethyl 2-{4-[(1S)-1-[(4,5-dichloro-1,6-dimethyl-1H-indol-2-yl)formamido]-2-hydroxyethyl]benzenesulfonyl}acetate], the IC50 turned out to be 107 nM. Take `Cc1cc2c(cc(C(=O)N[C@H](CO)c3ccc(S(=O)(=O)CC(=O)OC4CCOCC4)cc3)n2C)c(F)c1F` [Example 09-037, oxan-4-yl 2-{4-[(1S)-1-[(4,5-difluoro-1,6-dimethyl-1H-indol-2-yl)formamido]-2-hydroxyethyl]benzenesulfonyl}acetate]: the IC50 came to 578 nM. On the same count and under the same terms, as for `Cc1cc2c(cc(C(=O)N[C@H](CO)c3ccc(S(=O)(=O)CC(=O)OCCCO)cc3)n2C)c(F)c1F` [Example 09-038, 3-hydroxypropyl 2-{4-[(1S)-1-[(4,5-difluoro-1,6-dimethyl-1H-indol-2-yl)formamido]-2-hydroxyethyl]benzenesulfonyl}acetate], the figure is 255 nM; as for `Cc1cc2c(cc(C(=O)N[C@H](CO)c3ccc(S(=O)(=O)CC(=O)OCC(C)(C)O)cc3)n2C)c(Cl)c1Cl` [Example 09-039, 2-hydroxy-2-methylpropyl 2-{4-[(1S)-1-[(4,5-dichloro-1,6-dimethyl-1H-indol-2-yl)formamido]-2-hydroxyethyl]benzenesulfonyl}acetate], 168 nM. `Cc1cc2c(cc(C(=O)N[C@H](CO)c3ccc(S(=O)(=O)CC(=O)OCCCO)cc3)n2C)c(Cl)c1Cl` [Example 09-040, 3-hydroxypropyl 2-{4-[(1S)-1-[(4,5-dichloro-1,6-dimethyl-1H-indol-2-yl)formamido]-2-hydroxyethyl]benzenesulfonyl}acetate]: the IC50 was 190 nM.
